Results published in US9428477B2, “Trans-2-decenoic acid derivative and drug containing same” (NIPPON ZOKI PHARMACEUTICAL CO., LTD., priority 2012, dated 2016).

Key:
[1] = system: rats with paclitaxel-induced peripheral nerve disorder; assay: Rat peripheral nerve disorder induced by paclitaxel, von Frey test; type: in vivo; settings: ip, test drug intraperitoneally, single dose, higher of values 1 and 5 hours after administration, mechanical stimulus of right hind limb, normal threshold 15, read-out: Recovery Rate of 50% Reaction Threshold Value
Method: The effects of the compounds of the present invention were evaluated for a peripheral nerve disorder which is a side effect induced by the administration of an anti-cancer agent paclitaxel, such as hyperesthesia including allodynia induced by mechanical stimuli, which is a severe pain induced by such tactile stimuli which usually cause no pains. The compound of the present invention was intraperitoneally administered to rats as a test drug to conduct a von Frey test.
Male SD rats of six weeks age (six rats per group) were used as experimental animals, and paclitaxel (2 mg/kg) was intraperitoneally administered every other day for four times in total to prepare rats with paclitaxel-induced peripheral nerve disorder. During the period of 18 to 25 days or during the period of 20 to 27 days after the initiation of paclitaxel administration, the test drug was intraperitoneally administered in a single dose of […], and the following von Frey test was conducted.
The rats of the above (1) were placed in a transparent acrylic cage with a wire-meshed floor and habituated for about three minutes, and the 50% reaction threshold values to the mechanical stimulus of right hind limb were measured before administration of the test drug and after 1 and 5 hours from the initiation of the administration.
The measurement was conducted using von Frey filaments (manufactured by North Coast Medical Inc.) in accordance with the methods of Chaplan, et al. (Journal of Neuroscience Methods, 53(1), 55-63, 1994) and Dixon, et al. (Annual Review of Pharmacology and Toxicology, 20, 441-462, 1980). […] The case where the rat escaped at the instance of removing the filament was also called positive. When the positive reaction was found, stimulus was applied similarly with a filament of one rank weaker, and in the absence of the reaction, stimulus was similarly applied with a filament of one rank stronger, and a point where the reaction changed from negative to positive or from positive to negative was called the first two reactions. Subsequently, stimuli were applied for continuously four times by the same up-down method. A 50% reaction threshold value to the mechanical stimulus was measured using the reaction to the six stimuli in total and then (mean value)±(standard error) for each group was calculated. Incidentally, when stimulus reached to a load of 15.0 g without positive reaction, or when positive reaction continued to a load of 0.4 g, 15.0 g or 0.25 g was adopted as each of 50% reaction threshold values. With regard to the higher 50% reaction threshold value between the 50% threshold values after 1 hour and 5 hours from administration of a test drug, a recovery rate (%) of the 50% reaction threshold value was calculated by the following expression in which 15 was taken as a normal threshold value.
Recovery rate (%) of 50% reaction threshold value=[(50% reaction threshold value after 1 hour or 5 hours from administration of test drug)−(50% reaction threshold value before administration of test drug)]/[(Normal threshold value)−(50% reaction threshold value before administration of test drug)]×100

MAP kinase (ERK 1/2) = assay: Activation (phosphorylation) of MAP kinase in cultured cerebral cortex nerve cells, Western immunoblotting; type: cell-based; settings: 0.5 h; fetal rat cerebral cortex nerve cells; compound 250 μg/ml in 0.1% DMSO; 30 minutes; relative to control = 1.00; read-out: Ratio of pMAPK to MAPK
Method: With regard to the compounds of the present invention, the activation of MAP kinase (ERK 1/2) was measured in accordance with a Western immunoblotting in the following manner.
Nerve cells were dispersed from cerebral cortex of a fetal rat of 17 days age, and the nerve cells were cultured for one day in a Dulbecco's modified Eagle's medium (DMEM) containing 5% fetal bovine serum. The culture medium was exchanged with a serum-free medium (B27 supplemented Neurobasal; Invitrogen), and the nerve cells were cultured at the density of 20,000 to 40,000 cells/cm^2 in a polyornithine-coated culture dish.
After three days, the compound of the present invention was added, and the culture was continued for 30 minutes. Thereafter, the cells were recovered on ice using a solution containing a phosphatase inhibitor where Tris-HCl buffer was used as a base. The protein concentration of the resulting cell extract was quantified with a BCA Protein Assay Kit (Takara Bio Co., Ltd.), and a certain amount of the protein (3 μg for the measurement of MAP kinase and 5 μg for the measurement of phosphorylated MAP kinase) was subjected to polyacrylamide gel electrophoresis. The protein was transferred from the electrophoresed gel to a PVDF membrane, and Western immunoblotting was carried out using each of an anti-MAP kinase antibody (Cell Signaling Technology) and an anti-phosphorylated MAP kinase antibody (Cell Signaling Technology) of the primary antibody.
Subsequently, the reaction with an alkaline phosphatase-labeled anti-rabbit IgG antibody (Promega) of the secondary antibody was carried out, and the enzymatic activity was allowed to develop color, to measure MAP kinase (MAPK) and the phosphorylated MAP kinase (pMAPK).
Incidentally, each of the compounds of the present invention was dissolved in 0.1% DMSO to adjust its concentration to 250 μg/ml. As to the control, 0.1% DMSO was added.
The intensity of the concentration of the bands of eletrophoresed the gel was calculated and quantified using Image J (K. K. Bioarts). The numerical values for the MAPK when using the compounds of the present invention were each divided by the numerical value for the MAPK of the control, and the numerical values for the pMAPK when using the compounds of the present invention were divided by the numerical value for the pMAPK of the control, whereby a ratio of the MAPK when using each of the compounds of the present invention to the control, and a ratio of the pMAPK when using each of the compounds of the present invention to the control were obtained. Subsequently, the ratio of the pMAPK to the control obtained was divided by the ratio of the MAPK to the control to obtain a ratio of the pMAPK to the MAPK.

| SMILES | change in vivo at 0.3 mg/kg [1] | fold induction at 250 µg/mL (MAP kinase (ERK 1/2)) | melting point |
| --- | --- | --- | --- |
| CCCCCCC/C=C/C(=O)N1CCC[C@H]1C(=O)O [Compound 2, (S)-1-((E)-2-Decenoyl)pyrrolidine-2-carboxylic acid] | 23.5% | 1.28 | – |
| CCCCCCC/C=C/C(=O)N1CCSC1 [Compound 4, 3-((E)-2-Decenoyl)thiazolidine] | 43.7% | 1.47 | – |
| CCCCCCC/C=C/C(=O)N1CCC(C)CC1 [Compound 6, 1-((E)-2-Decenoyl)-4-methylpiperidine] | 33.8% | 1.71 | – |
| CCCCCCC/C=C/C(=O)N1CCC(=O)CC1 [Compound 7, 1-((E)-2-decenoyl)piperidin-4-one] | 45.2% | 1.62 | – |
| CCCCCCC/C=C/C(=O)N1CCC(O)CC1 [Compound 8, 1-((E)-2-Decenoyl)-4-hydroxypiperidine] | 49.7% | – | – |
| CCCCCCC/C=C/C(=O)N1CCC(OC)CC1 [Compound 9, 1-((E)-2-Decenoyl)-4-methoxypiperidine] | 35.6% | – | – |
| CCCCCCC/C=C/C(=O)N1CCC(N(CC)CC)CC1 [Compound 13, 1-((E)-2-Decenoyl)-4-diethylaminopiperidine] | 23.2% | 1.63 | – |
| CCCCCCC/C=C/C(=O)N1CCC(CN(CC)CC)CC1 [Compound 14, 1-((E)-2-Decenoyl)-4-diethylaminomethylpiperidine] | 26% | 2.08 | – |
| CCCCCCC/C=C/C(=O)N1CCC(CCN(C)C)CC1 [Compound 15, 1-((E)-2-Decenoyl)-4-(2-dimethylaminoethyl)piperidine] | 34.2% | – | – |
| CCCCCCC/C=C/C(=O)N1CCC(c2ccccc2)CC1 [Compound 16, 1-((E)-2-Decenoyl)-4-phenylpiperidine] | 38.6% | – | – |
| CCCCCCC/C=C/C(=O)N1CCOCC1 [Compound 17, 4-((E)-2-Decenoyl)morpholine] | 30.6% | – | – |
| CCCCCCC/C=C/C(=O)N1CCN(C)CC1 [Compound 19, 1-((E)-2-Decenoyl)-4-methylpiperazine] | 19.8% | – | – |
| CCCCCCC/C=C/C(=O)N1CCN(c2ccc(N(C)C)cc2)CC1 [Compound 28, 1-((E)-2-Decenoyl)-4-(4-dimethylaminophenyl)piperazine] | 20.3% | – | 73 to 74 °C |
| CCCCCCC/C=C/C(=O)N1CCN(c2ccncc2)CC1 [Compound 29, 1-((E)-2-Decenoyl)-4-(pyridin-4-yl)piperazine] | 42.8% | – | – |
| CCCCCCC/C=C/C(=O)N1CCN(c2ccccn2)CC1 [Compound 30, 1-((E)-2-Decenoyl)-4-(pyridin-2-yl)piperazine] | 22.6% | – | – |
| CCCCCCC/C=C/C(=O)N1CCN(c2ncccn2)CC1 [Compound 31, 1-((E)-2-Decenoyl)-4-(pyrimidin-2-yl)piperazine] | 22.9% | – | – |
| CCCCCCC/C=C/C(=O)N1CCCCCC1 [Compound 32, 1-((E)-2-Decenoyl)azepane] | 51.1% | – | – |

| SMILES | change in vivo at 0.3 mg/kg [1] | fold induction at 250 µg/mL (MAP kinase (ERK 1/2)) | melting point |
| --- | --- | --- | --- |
| CCCCCCC/C=C/C(=O)N1CCCN(C)CC1 [Compound 33, 1-((E)-2-Decenoyl)-4-methyl-[1,4]diazepane] | 33.4% | – | – |
| CCCCCCC/C=C/C(=O)N1CCCN(CCN(C)C)CC1 [Compound 34, 1-((E)-2-Decenoyl)-4-(2-dimethylaminoethyl)-[1,4]diazepane] | 35.5% | – | – |
| CCCCCCC/C=C/C(=O)N1CCC(CC(=O)O)CC1 [Compound 35, 2-(1-((E)-2-Decenoyl)-4-piperidyl)acetic acid] | 41.2% | – | 65 to 66 °C |
| CCCCCCC/C=C/C(=O)N1CCC(CCC(=O)O)CC1 [Compound 36, 3-(1-((E)-2-Decenoyl)-4-piperidyl)propanoic acid] | 42% | – | – |
| CCCCCCC/C=C/C(=O)N1CCC(C#N)CC1 [Compound 37, 1-((E)-2-Decenoyl)-4-cyanopiperidine] | 22.4% | – | – |
| CCCCCCC/C=C/C(=O)N1CCC(c2ccc(Cl)cc2)CC1 [Compound 38, 1-((E)-2-Decenoyl)-4-(4-chlorophenyl)piperidine] | 55.5% | – | – |
| CCCCCCC/C=C/C(=O)N1CCN(CC(=O)O)CC1.Cl [Compound 39, [4-[(E)-2-Decenoyl]piperazin-1-yl]acetic acid hydrochloride] | 16.6% | – | 195 °C (dec.) |
| CCCCCCC/C=C/C(=O)N1CCN(CCCC(=O)O)CC1.Cl [Compound 40, 4-[4-[(E)-2-Decenoyl]piperazin-1-yl]butanoic acid hydrochloride] | 61.6% | – | 203 to 205 °C |
| CCCCCCC/C=C/C(=O)N1CCN(c2ccc(Cl)cc2)CC1 [Compound 41, 1-((E)-2-Decenoyl)-4-(4-chlorophenyl)piperazine] | 81.5% | – | – |
| CCCCCCC/C=C/C(=O)N1CCN(c2ccc(OC)cc2)CC1 [Compound 42, 1-((E)-2-Decenoyl)-4-(4-methoxyphenyl)piperazine] | 45.8% | – | 50 to 52 °C |
| CCCCCCC/C=C/C(=O)N1CCN(c2ccc(C)cc2)CC1 [Compound 43, 1-((E)-2-Decenoyl)-4-(4-methylphenyl)piperazine] | 31.3% | – | 45 to 46 °C |
| CCCCCCC/C=C/C(=O)N1CCN(c2ccc(F)cc2)CC1 [Compound 44, 1-((E)-2-Decenoyl)-4-(4-fluorophenyl)piperazine] | 42.6% | – | – |
| CCCCCCC/C=C/C(=O)N1CCN(c2ccccc2Cl)CC1 [Compound 45, 1-((E)-2-Decenoyl)-4-(2-chlorophenyl)piperazine] | 33.3% | – | – |
| CCCCCCC/C=C/C(=O)N1CCN(c2ccc(O)cc2)CC1 [Compound 46, 1-((E)-2-Decenoyl)-4-(4-hydroxyphenyl)piperazine] | 53.7% | – | 85 to 87 °C |
| CCCCCCC/C=C/C(=O)N1CCN(c2ccc(OCC(=O)O)cc2)CC1 [Compound 47, 2-[4-[4-((E)-2-Decenoyl)piperazin-1-yl]phenoxy]acetic acid] | 54.5% | – | 210 °C (dec.) |
| CCCCCCC/C=C/C(=O)N1CCN(Cc2ccc(C(=O)O)cc2)CC1 [Compound 48, 4-[[4-((E)-2-Decenoyl)piperazin-1-yl]methyl]benzoic acid] | 56.4% | – | 114 to 116 °C |
